Measured values from patent US7790749B2, “Use of pleuromutilins for the treatment of disorders caused by Helicobacter pylori” (Nabriva Therapeutics AG, priority 2002, dated 2010).
In brackets after ≈: the same amount, converted by molar mass. Where two headings read alike, the source gives them in different places.

What was measured:
Format in all cases: cell-based
[1] = system: H.pylori ATCC 43504; assay: Agar Dilution Method, MIC against H.pylori ATCC 43504; conditions: Helicobacter pylori, ATCC43504, 72 h, read-out: minimum inhibitory concentrations (MIC)
Method: (§1) Activity against strains of Helicobacter pylori is determined according to the Agar Dilution Method, using Mueller Hinton agar, supplementet with >2 week old horse blood (5% v/v), incubation at 35° C. for 3 days in a gas system-generated microaerobic atmosphere according to NCCLS recommendations, such as disclosed e.g. in “Methods for dilution antimicrobial susceptibility tests for bacteria that grow aerobically ”—Fourth edition; approved standard. M7-A4 Vol. 17 No. 2 (1997) and M100-S9 Vol. 19 No. 1 (1999).
(§2) Activity of TEST COMPOUNDS (TCs) against H.pylori strains ATCC 43504, 43526, 43629, 49503 and 51652 is determined according to the Agar Dilution Method, using Mueller Hinton agar, supplementet with >2 week old horse blood (5% v/v), incubation at 35° C. for 3 days in a gas system-generated microaerobic atmosphere according to NCCLS recommendations, such as disclosed in “Methods for dilution antimicrobial susceptibility tests for bacteria that grow aerobically “—Fourth edition; approved standard. M7-A4 Vol. 17 No. 2 (1997) and M100-S9 Vol. 19 No. 1(1999).

[2] = system: H.pylori ATCC 43526; assay: Agar Dilution Method, MIC against H.pylori ATCC 43526; conditions: Helicobacter pylori, ATCC43526, 72 h, read-out: minimum inhibitory concentrations (MIC)
Method: as §1, §2

[3] = system: H.pylori ATCC 43629; assay: Agar Dilution Method, MIC against H.pylori ATCC 43629; conditions: Helicobacter pylori, ATCC43629, 72 h, read-out: minimum inhibitory concentrations (MIC)
Method: as §1, §2

[4] = system: H.pylori ATCC 49503; assay: Agar Dilution Method, MIC against H.pylori ATCC 49503; conditions: Helicobacter pylori, ATCC49503, 72 h, read-out: minimum inhibitory concentrations (MIC)
Method: as §1, §2

[5] = system: H.pylori ATCC 51652; assay: Agar Dilution Method, MIC against H.pylori ATCC 51652; conditions: Helicobacter pylori, ATCC51652, 72 h, read-out: minimum inhibitory concentrations (MIC)
Method: as §1, §2

[6] = H.pylori/43504, Mueller Hinton agar, 5% horse blood, 35° C., 3 days, microaerobic
[7] = H.pylori/43526, Mueller Hinton agar, 5% horse blood, 35° C., 3 days, microaerobic
[8] = H.pylori/43629, Mueller Hinton agar, 5% horse blood, 35° C., 3 days, microaerobic
[9] = H.pylori/49503, Mueller Hinton agar, 5% horse blood, 35° C., 3 days, microaerobic
[10] = H.pylori/51652, Mueller Hinton agar, 5% horse blood, 35° C., 3 days, microaerobic

MIC [1, 6] [µg/mL] | MIC [2, 7] [µg/mL] | MIC [3, 8] [µg/mL] | MIC [4, 9] [µg/mL] | MIC [5, 10] [µg/mL] | SMILES | MIC [1] [µg/mL] | MIC [2] [µg/mL] | MIC [3] [µg/mL] | MIC [4] [µg/mL] | MIC [5] [µg/mL]
0.025 (≈ 0.0443 µM) | 0.05 (≈ 0.0885 µM) | < 0.0125 | < 0.0125 | 0.025 (≈ 0.0443 µM) | C=C[C@]1(C)C[C@@H](OC(=O)CSC(C)(C)CNC(=O)[C@H](N)C(C)C)[C@]2(C)[C@H](C)CC[C@]3(CCC(=O)[C@H]32)[C@@H](C)[C@@H]1O [TC-I, Valnemulin] | – | – | – | – | –
0.025 (≈ 0.0433 µM) | 0.05 (≈ 0.0867 µM) | < 0.0125 | 0.025 (≈ 0.0433 µM) | 0.025 (≈ 0.0433 µM) | C=C[C@]1(C)C[C@@H](OC(=O)CSC2CCCN(C(=O)C(N)C(C)C)C2)[C@]2(C)C(C)CCC3(CCC(=O)C32)[C@@H](C)C1O (some centres unmarked) [TC-III] | – | – | – | – | –
< 0.0125 | 0.05 (≈ 0.0838 µM) | < 0.0125 | 0.025 (≈ 0.0419 µM) | 0.025 (≈ 0.0419 µM) | C=C[C@]1(C)C[C@@H](OC(=O)CSc2cccc(NC(=O)[C@@H]3CCCCN3)c2)[C@]2(C)C(C)CCC3(CCC(=O)C32)[C@@H](C)C1O (some centres unmarked) [TC-II] | – | – | – | – | –
– | – | – | – | – | CN(C)[C@@H]1C(O)=C(C(N)=O)C(=O)[C@@]2(O)C(O)=C3C(=O)c4c(O)cccc4[C@@](C)(O)[C@H]3C[C@@H]12 [TEC, tetracycline] | 0.4 (≈ 0.9 µM) | 0.4 (≈ 0.9 µM) | 0.4 (≈ 0.9 µM) | 0.2 (≈ 0.45 µM) | 0.2 (≈ 0.45 µM)
